In patent US20240287089A1, “Preparation and Uses of 7-Azaindenoisoquinolines” (Purdue Research Foundation, priority 0001, published 2024):

Legend:
[1] = Plasma protein binding by equilibrium dialysis; details: human plasma
[2] = Stability in blood plasma; details: mouse plasma, 37° C.
Method: Analysis of Plasma Protein Binding and Stability in Human and Mouse Blood Plasma by Equilibrium Dialysis. Frozen plasma (stored at −80° C.) was thawed immediately in a 37° C. water bath. The working solutions of test compound and control compound were prepared in DMSO at 200 μM concentration, and the working solutions were spiked into plasma. The final concentration of compound was 1 μM. The final concentration of DMSO was 0.5%. Ketoconazole was used as positive control in the assay. The dialysis membranes were soaked in ultrapure water for 60 min to separate strips, then in 20% ethanol for 20 min, and then finally in dialysis buffer for 20 min. For equilibrium dialysis, each cell contained plasma sample (150 μL) and was dialyzed against an equal volume of dialysis buffer (PBS). The assay was performed in duplicate. The dialysis plate was sealed and incubated at 37° C. with 5% CO2 at 100 rpm for 6 h. At the end of incubation, samples (50 μL) from both buffer and plasma chambers were transferred to wells of a 96-well plate. Plasma (50 μL) was added to each buffer sample and an equal volume of PBS was added to the collected plasma sample. […] The concentrations of test compounds in the buffer and plasma chambers were determined from peak area ratios.

[3] = Plasma protein binding by equilibrium dialysis; details: mouse plasma
Method: (§1) Analysis of Plasma Protein Binding and Stability in Human and Mouse Blood Plasma by Equilibrium Dialysis. Frozen plasma (stored at −80° C.) was thawed immediately in a 37° C. water bath. The working solutions of test compound and control compound were prepared in DMSO at 200 μM concentration, and the working solutions were spiked into plasma. The final concentration of compound was 1 μM. The final concentration of DMSO was 0.5%. Ketoconazole was used as positive control in the assay. The dialysis membranes were soaked in ultrapure water for 60 min to separate strips, then in 20% ethanol for 20 min, and then finally in dialysis buffer for 20 min. For equilibrium dialysis, each cell contained plasma sample (150 μL) and was dialyzed against an equal volume of dialysis buffer (PBS). The assay was performed in duplicate. The dialysis plate was sealed and incubated at 37° C. with 5% CO2 at 100 rpm for 6 h. At the end of incubation, samples (50 μL) from both buffer and plasma chambers were transferred to wells of a 96-well plate. Plasma (50 μL) was added to each buffer sample and an equal volume of PBS was added to the collected plasma sample. Cold acetonitrile (400 μL) containing internal standards (IS, 100 nM alprazolam, 200 nM labetalol, 200 nM imipramine and 2 μM ketoprofen) was added to precipitate protein and release compounds. Samples were vortexed for 2 min and centrifuged for 30 min at 3,220 g. An aliquot (100 μL) of the supernatant was diluted with ultra-pure H2O (100 μL), and the mixture was used for LC-MS/MS analysis. For stability determination in plasma, a spiked plasma sample (50 μL) was transferred to a new plate and incubated at 37° C., 5% CO2 for 0 and 6 h. At designated time points, PBS (50 μL) was added and mixed thoroughly, followed by the addition of room temperature quench solution [400 μL of acetonitrile containing internal standards (IS, 100 nM alprazolam, 200 nM labetalol, 200 nM imipramine and 2 μM ketoprofen)] to precipitate protein and release compounds. Samples were vortexed for 2 min and centrifuged for 30 min at 3,220 g. An aliquot (400 μL) of the supernatant was diluted by ultra-pure H2O, and the mixture was used for LC-MS/MS analysis. The concentrations of test compounds in the buffer and plasma chambers were determined from peak area ratios.

[4] = Stability in blood plasma; details: human plasma, 37° C.
Method: as §1

CC(=O)N1CCN(c2ccc(OCC3COC(Cn4ccnc4)(c4ccc(Cl)cc4Cl)O3)cc2)CC1 (stereo not drawn) [Ketoconazole]
% Recovery [1]: 107.45%
% Bound ([1]; 1 μM, 6 h dialysis): 98.01%
% Stability at 6 hrs [2]: 88.82%
% Recovery [3]: 93.23%
% Bound ([3]; 1 μM, 6 h dialysis): 99.26%
% Stability at 6 hrs [4]: 104.96%
